Assay results: ChEMBL document CHEMBL1157460, “Enhanced concentration-dependent cytotoxic effect of the dinuclear copper(II) complex of L-carnitine [Cu2(L-carnitine)2Cl2(H2O)2]Cl2, compared to L-carnitine or copper chloride dihydrate, in human leukemic cell lines” (2008)

Legend:
HL-60 [1] = assay: Cytotoxicity against human HL60 cells assessed as necrosis at 1.25 uM after 72 hrs by trypan blue staining; type: functional
HL-60 [2] = assay: Cytotoxicity against human HL60 cells assessed as necrosis at 2.5 uM after 24 hrs by trypan blue staining; type: functional
HL-60 [3] = assay: Cytotoxicity against human HL60 cells assessed as necrosis at 2.5 uM after 48 hrs by trypan blue staining; type: functional
HL-60 [4] = assay: Cytotoxicity against human HL60 cells assessed as necrosis at 2.5 uM after 72 hrs by trypan blue staining; type: functional
HL-60 [5] = assay: Cytotoxicity against human HL60 cells assessed as necrosis at 5 uM after 24 hrs by trypan blue staining; type: functional
HL-60 [6] = assay: Cytotoxicity against human HL60 cells assessed as necrosis at 5 uM after 48 hrs by trypan blue staining; type: functional
HL-60 [7] = assay: Cytotoxicity against human HL60 cells assessed as necrosis at 5 uM after 72 hrs by trypan blue staining; type: functional
HL-60 [8] = assay: Cytotoxicity against human HL60 cells assessed as necrosis at 10 uM after 24 hrs by trypan blue staining; type: functional
HL-60 [9] = assay: Cytotoxicity against human HL60 cells assessed as necrosis at 10 uM after 48 hrs by trypan blue staining; type: functional
HL-60 [10] = assay: Cytotoxicity against human HL60 cells assessed as necrosis at 10 uM after 72 hrs by trypan blue staining; type: functional
K562 [11] = assay: Cytotoxicity against human K562 cells assessed as necrosis at 1.25 uM after 24 hrs by trypan blue staining; type: functional
K562 [12] = assay: Cytotoxicity against human K562 cells assessed as necrosis at 1.25 uM after 48 hrs by trypan blue staining; type: functional
K562 [13] = assay: Cytotoxicity against human K562 cells assessed as necrosis at 1.25 uM after 72 hrs by trypan blue staining; type: functional
K562 [14] = assay: Cytotoxicity against human K562 cells assessed as necrosis at 2.5 uM after 24 hrs by trypan blue staining; type: functional
K562 [15] = assay: Cytotoxicity against human K562 cells assessed as necrosis at 2.5 uM after 48 hrs by trypan blue staining; type: functional
K562 [16] = assay: Cytotoxicity against human K562 cells assessed as necrosis at 2.5 uM after 72 hrs by trypan blue staining; type: functional
K562 [17] = assay: Cytotoxicity against human K562 cells assessed as necrosis at 5 uM after 24 hrs by trypan blue staining; type: functional
K562 [18] = assay: Cytotoxicity against human K562 cells assessed as necrosis at 5 uM after 48 hrs by trypan blue staining; type: functional
K562 [19] = assay: Cytotoxicity against human K562 cells assessed as necrosis at 5 uM after 72 hrs by trypan blue staining; type: functional
K562 [20] = assay: Cytotoxicity against human K562 cells assessed as necrosis at 10 uM after 24 hrs by trypan blue staining; type: functional
K562 [21] = assay: Cytotoxicity against human K562 cells assessed as necrosis at 10 uM after 48 hrs by trypan blue staining; type: functional
K562 [22] = assay: Cytotoxicity against human K562 cells assessed as necrosis at 10 uM after 72 hrs by trypan blue staining; type: functional
HL-60 [23] = assay: Cytotoxicity against human HL60 cells assessed as cell viability at >=5 uM after 24 hrs by MTT assay; type: functional, cell-based
HL-60 [24] = assay: Cytotoxicity against human HL60 cells assessed as cell viability at <=2.5 uM by MTT assay; type: functional, cell-based; settings: TDE = time-dependent effect
K562 [25] = assay: Cytotoxicity against human K562 cells assessed as cell viability at >=5 uM after 24 hrs by MTT assay; type: functional, cell-based
K562 [26] = assay: Cytotoxicity against human K562 cells assessed as cell viability at <=2.5 uM by MTT assay; type: functional, cell-based; settings: TDE = time-dependent effect
HL-60 [27] = assay: Cytotoxicity against human HL60 cells assessed as necrosis at 1.25 uM after 24 hrs by trypan blue staining; type: functional
HL-60 [28] = assay: Cytotoxicity against human HL60 cells assessed as necrosis at 1.25 uM after 48 hrs by trypan blue staining; type: functional

Compound	Activity (HL-60 [1]) [%]	Activity (HL-60 [2]) [%]	Activity (HL-60 [3]) [%]	Activity (HL-60 [4]) [%]	Activity (HL-60 [5]) [%]	Activity (HL-60 [6]) [%]	Activity (HL-60 [7]) [%]	Activity (HL-60 [8]) [%]	Activity (HL-60 [9]) [%]	Activity (HL-60 [10]) [%]	Activity (K562 [11]) [%]	Activity (K562 [12]) [%]	Activity (K562 [13]) [%]	Activity (K562 [14]) [%]	Activity (K562 [15]) [%]	Activity (K562 [16]) [%]	Activity (K562 [17]) [%]	Activity (K562 [18]) [%]	Activity (K562 [19]) [%]	Activity (K562 [20]) [%]	further results
CUPRIC CHLORIDE	26.5	1.5	6.8	22.6	86.2	100	100	100	100	100	16.3	4.9	3	5.1	10.8	7.5	87.5	100	100	100	Activity (K562 [21]): 100%; Activity (K562 [22]): 100%; Activity (HL-60 [23]): 0%; Activity (HL-60 [24]): tde; Activity (K562 [25]): 0%; Activity (K562 [26]): tde; Activity (HL-60 [27]): 1.4%; Activity (HL-60 [28]): 10.8%
C[N+](C)(C)C[C@H](O)CC(=O)[O-] [LEVOCARNITINE]	13.6	0	7.8	28.4	1.8	9.2	25.6	1.7	9.7	30	0	2.5	4.7	2.4	0	4.7	0	8.9	14.3	2.4	Activity (K562 [21]): 11.1%; Activity (K562 [22]): 11.8%; Activity (HL-60 [23]; TDE = time-dependent effect): tde; Activity (HL-60 [24]): tde; Activity (K562 [25]; TDE = time-dependent effect): tde; Activity (K562 [26]): tde; Activity (HL-60 [27]): 1.4%; Activity (HL-60 [28]): 5.3%
